Tests used:
Assay type in all cases: in vivo
Podosphaera leucotricha = assay: Example 14 field trials, apple (Malus domestica var. Gold Rush, var. Morgenduft Dallago) infected with powdery mildew; conditions: 840 g a.c./ha
Sphaerotheca fuliginea = assay: Example 8 field trial, cucumber (Cucumis sativus) infected with powdery mildew, Spain; conditions: 7 DA-A3, BBCH 63, 500 g a.c./ha
Venturia inaequalis = assay: Example 15 field trial, apple (Malus domestica var. Gala) infected with apple scab, France; conditions: PESINC, 200 leaves, 1200 g a.c./ha

SMILES: OCC1(O)OC[C@@H](O)[C@H](O)[C@@H]1O (stereo partly drawn) [TAG, (3S,4S,5R)-2-(hydroxymethyl)oxane-2,3,4,5-tetrol]
- TAG f.e. (%) (Podosphaera leucotricha; PESINC, location 1 (France), 20 shoots, 7 DA-A5, BBCH 71): 26.7%
- TAG f.e. (%) (Podosphaera leucotricha; PESINC, location 1 (France), 100 leaves, 5 DA-A8, BBCH 74): 18.8%
- TAG f.e. (%) (Podosphaera leucotricha; PESINC, location 1 (France), 100 leaves, 6 DA-A6, BBCH 74): 14.5%
- TAG f.e. (%) (Podosphaera leucotricha; PESINC, location 1 (France), 100 leaves, 15 DA-A8, BBCH 76): 8.7%
- TAG f.e. (%) (Podosphaera leucotricha; PESINC, location 1, 20 shoots, 7 DA-A5, BBCH 71, second listing (r40)): 0.6%
- TAG f.e. (%) (Podosphaera leucotricha; PESINC, location 1, 100 leaves, 5 DA-A8, BBCH 74, second listing (r52)): 2.4%
- TAG f.e. (%) (Podosphaera leucotricha; PESINC, location 1, 100 leaves, 6 DA-A6, BBCH 74, second listing (r46)): 36.4%
- TAG f.e. (%) (Podosphaera leucotricha; PESINC, location 1, 100 leaves, 15 DA-A8, BBCH 76, second listing (r58)): 5.9%
- TAG f.e. (%) (Podosphaera leucotricha; PESSEV, location 1 (France), 100 leaves, 5 DA-A8, BBCH 74): 38.4%
- TAG f.e. (%) (Podosphaera leucotricha; PESSEV, location 1 (France), 100 leaves, 6 DA-A6, BBCH 74): 15.6%
- TAG f.e. (%) (Podosphaera leucotricha; PESSEV, location 1 (France), 100 leaves, 15 DA-A8, BBCH 76): 2.6%
- TAG f.e. (%) (Podosphaera leucotricha; PESSEV, location 1, 100 leaves, 5 DA-A8, BBCH 74, second listing (r49)): 1.6%
- TAG f.e. (%) (Podosphaera leucotricha; PESSEV, location 1, 100 leaves, 6 DA-A6, BBCH 74, second listing (r43)): 44.9%
- TAG f.e. (%) (Podosphaera leucotricha; PESSEV, location 1, 100 leaves, 15 DA-A8, BBCH 76, second listing (r55)): 3.5%
- TAG f.e. (%) (Sphaerotheca fuliginea; PESINC): 83.9%
- TAG f.e. (%) (Sphaerotheca fuliginea; PESSEV): 93.2%
- TAG f.e. (%) (Venturia inaequalis; 28 DA-A12, BBCH 73): 28.1%
- TAG f.e. (%) (Venturia inaequalis; 56 DA-A12, BBCH 75): 28.0%
